Assays:
SCPMA = experiment: In-water applied (paddy) greenhouse weed control, SCPMA; assay type: in vivo
Protocol: (§1) Weed seeds or nutlets of the desired test plant species were planted in puddled soil (mud) prepared by mixing a shredded, non-sterilized mineral soil (50.5 percent silt, 25.5 percent clay, and 24 percent sand, with a pH of about 7.6 and an organic matter content of about 2.9 percent) and water at a 1:1 volumetric ratio. The prepared mud was dispensed in 365 mL aliquots into 16-ounce (oz.) non-perforated plastic pots with a surface area of 86.59 square centimeters (cm^2) leaving a headspace of 3 centimeters (cm) in each pot. Mud was allowed to dry overnight prior to planting or transplanting. Rice seeds were planted in Sun Gro MetroMix® 306 planting mixture, which typically has a pH of 6.0 to 6.8 and an organic matter content of about 30 percent, in plastic plug trays. Seedlings at the second or third leaf stage of growth were transplanted into 840 mL of mud contained in 32-oz. non-perforated plastic pots with a surface area of 86.59 cm^2 4 days prior to herbicide application. The paddy was created by filling the headspace of the pots with 2.5 to 3 cm of water. When required to ensure good germination and healthy plants, a fungicide treatment and/or other chemical or physical treatment was applied. The plants were grown for 4-22 days in a greenhouse with an approximate 14 h photoperiod which was maintained at about 29′C during the day and 26° C. during the night. Nutrients were added as Osmocote® (19:6:12, N:P:K+minor nutrients) at 2 g per 16-oz. pot and 4 g per 960-mL 32-oz. pot. Water was added on a regular basis to maintain the paddy flood, and supplemental lighting was provided with overhead metal halide 1000-Watt lamps as necessary. The plants were employed for testing when they reached the second or third true leaf stage.
(§2) Treatments consisted of the acid or esters of 4-amino-3-chloro-5-fluoro-6-(4-chloro-2-fluoro-3-methoxy-phenyl)pyridine-2-carboxylic acid (compound A) each formulated as an SC and various herbicidal components alone and in combination. Forms of compound A were applied on an acid equivalent basis.
(§3) Other herbicidal components were applied on an active ingredient basis and included auxin transport inhibiting (ATI) herbicides chlorflurenol-methyl (technical material), chlorflurenol (technical material), diflufenzopyr (technical material), dilfufenzopyr sodium (technical material), flurenol-methyl (technical material,) and naptalam (technical material).
(§4) Treatment requirements for each compound or herbicidal component were calculated based upon the rates being tested, the concentration of active ingredient or acid equivalent in the formulation, an application volume of 2 mL per component per pot, and an application area of 86.59 cm^2 per pot.
(§5) For formulated compounds, a measured amount was placed in an individual 100 or 200 mL glass vial and was dissolved in a volume of 1.25% (v/v) Agri-Dex® crop oil concentrate to obtain application solutions.
(§6) For technical grade compounds, a weighed amount was placed in an individual 100 to 200 mL glass vial and was dissolved in a volume of acetone to obtain concentrated stock solutions. […] The concentrated stock solutions obtained were diluted with an equivalent volume of an aqueous mixture containing 2.5% (v/v) crop oil concentrate so that the final application solutions contained 1.25% (v/v) crop oil concentrate.
(§7) Applications were made by injecting with a pipetter appropriate amounts of the application solutions, individually and sequentially, into the aqueous layer of the paddy. Control plants were treated in the same manner with the solvent blank. Applications were made so that all treated plant material received the same concentrations of acetone and crop oil concentrate.
(§8) The treated plants and control plants were placed in a greenhouse as described above and water was added as needed to maintain a paddy flood. […]

ECHOR = experiment: In-water applied (paddy) greenhouse weed control, ECHOR; assay type: in vivo, Echinochloa oryzoides (Ard.) Fritsch
Protocol: as §1, §2, §3, §4, §5, §6, §7, §8

ECHCG [1] = experiment: In-water applied (paddy) greenhouse weed control, ECHCG; assay type: in vivo, Echinochloa crusgalli (L.) Beauv.
Protocol: as §1, §2, §3, §4, §5, §6, §7, §8

LEFCH [2] = experiment: In-water applied (paddy) greenhouse weed control, LEFCH; assay type: in vivo, Leptochloa chinensis (L.) Nees; conditions: 20 DAA
Protocol: as §1, §2, §3, §4, §5, §6, §7, §8

ECHCO = experiment: Postemergence foliar-applied greenhouse weed control, ECHCO; assay type: in vivo, Echinochloa colona (L.) Link; conditions: 20 DAA
Description: (§9) Seeds or nutlets of the desired test plant species were planted in a soil matrix prepared by mixing a loam or sandy loam soil (e.g., 28.6 percent silt, 18.8 percent clay, and 52.6 percent sand, with a pH of about 5.8 and an organic matter content of about 1.8 percent) and calcareous grit in an 80 to 20 ratio. The soil matrix was contained in plastic pots with a volume of 1 quart and a surface area of 83.6 square centimeters (cm^2). When required to ensure good germination and healthy plants, a fungicide treatment and/or other chemical or physical treatment was applied. The plants were grown for 8-22 days in a greenhouse with an approximate 14 h photoperiod which was maintained at about 29° C. during the day and 26° C. during the night. Nutrients (Peters Excel® 15-5-15 5-Ca 2-Mg and iron chelate) were applied in the irrigation solution as needed and water was added on a regular basis. Supplemental lighting was provided with overhead metal halide 1000-Watt lamps as necessary. The plants were employed for testing when they reached the first through fourth true leaf stage.
(§10) Treatments consisted of the acid or esters of 4-amino-3-chloro-5-fluoro-6-(4-chloro-2-fluoro-3-methoxy-phenyl) pyridine-2-carboxylic acid (Compound A), each formulated as an SC (suspension concentrate), and various herbicidal components alone and in combination. Forms of compound A were applied on an acid equivalent basis.
as §3, with “chlorflurenol” for “chlorflurenol-methyl”, “chlorflurenol-methyl” for “chlorflurenol”, “diflufenzopyr” for “dilfufenzopyr”, “material)” for “material,)”
(§11) Treatment requirements were calculated based upon the rates being tested, the concentration of active ingredient or acid equivalent in the formulation, and a 12 mL application volume at a rate of 187 L/ha.
(§12) For treatments comprised of formulated and technical compounds, weighed amounts of the technical materials were placed individually in 25 mL glass vials and dissolved in a volume of 97:3 v/v acetone/DMSO to obtain 12× stock solutions, and measured amounts of the formulated compounds were placed individually in 25 mL glass vials and diluted in a volume of 1.5% (v/v) crop oil concentrate or water to obtain 12× stock solutions. […] Application solutions were prepared by adding an appropriate amount of each stock solution (e.g., 1 mL) and diluted to the appropriate final concentrations with the addition of an appropriate amount of an aqueous mixture of 1.5% (v/v) crop oil concentrate so that the final spray solutions contained 1.25% (v/v) crop oil concentrate. When required, additional water and/or 97:3 v/v acetone/DMSO was added to individual application solutions so that the final acetone and DMSO concentrations of the application solutions being compared were 8.1% and 0.25%, respectively.
(§13) All stock solutions and applications solutions were visually inspected for compound compatibility prior to application. Spray solutions were applied to the plant material with an overhead Mandel track sprayer equipped with an 8002E nozzle calibrated to deliver 187 L/ha over an application area of 0.503 m^2 at a spray height of 18 to 20 inches (46 to 50 cm) above average plant canopy height. Control plants were sprayed in the same manner with the solvent blank.
(§14) The treated plants and control plants were placed in a greenhouse as described above and watered by sub-irrigation to prevent wash-off of the test compounds. After approximately 3 weeks, the condition of the test plants as compared with that of the untreated plants was determined visually and scored on a scale of 0 to 100 percent where 0 corresponds to no injury or growth inhibition and 100 corresponds to complete kill. […]

ECHCG [3] = experiment: Postemergence foliar-applied greenhouse weed control, ECHCG; assay type: in vivo, Echinochloa crusgalli (L.) Beauv.; conditions: 20 DAA
Description: as §9, §10
as §3, with “chlorflurenol” for “chlorflurenol-methyl”, “chlorflurenol-methyl” for “chlorflurenol”, “diflufenzopyr” for “dilfufenzopyr”, “material)” for “material,)”
as §11, §12, §13, §14

CYPIR = experiment: Postemergence foliar-applied greenhouse weed control, CYPIR; assay type: in vivo, Cyperus iria L.; conditions: 20 DAA
Description: as §9, §10
as §3, with “chlorflurenol” for “chlorflurenol-methyl”, “chlorflurenol-methyl” for “chlorflurenol”, “diflufenzopyr” for “dilfufenzopyr”, “material)” for “material,)”
as §11, §12, §13, §14

IPOHE = experiment: Postemergence foliar-applied greenhouse weed control, IPOHE; assay type: in vivo, Ipomoea hederacea Jacq.; conditions: 20 DAA
Description: as §9, §10
as §3, with “chlorflurenol” for “chlorflurenol-methyl”, “chlorflurenol-methyl” for “chlorflurenol”, “diflufenzopyr” for “dilfufenzopyr”, “material)” for “material,)”
as §11, §12, §13, §14

LEFCH [4] = experiment: Postemergence foliar-applied greenhouse weed control, LEFCH; assay type: in vivo, Leptochloa chinensis (L.) Nees; conditions: 20 DAA
Description: as §9, §10
as §3, with “chlorflurenol” for “chlorflurenol-methyl”, “chlorflurenol-methyl” for “chlorflurenol”, “diflufenzopyr” for “dilfufenzopyr”, “material)” for “material,)”
as §11, §12, §13, §14

DIGSA = experiment: Postemergence foliar-applied greenhouse weed control, DIGSA; assay type: in vivo, Digitaria sanguinalis (L.) Scop.; conditions: 20 DAA
Description: as §9, §10
as §3, with “chlorflurenol” for “chlorflurenol-methyl”, “chlorflurenol-methyl” for “chlorflurenol”, “diflufenzopyr” for “dilfufenzopyr”, “material)” for “material,)”
as §11, §12, §13, §14

FIMMI = experiment: In-water applied (paddy) greenhouse weed control, FIMMI; assay type: in vivo, Fimbristylis miliacea (L.) Vahl; conditions: 19 DAA
Protocol: as §1, §2, §3, §4, §5, §6, §7, §8

CYPRO = experiment: In-water applied (paddy) greenhouse weed control, CYPRO; assay type: in vivo, Cyperus rotundus L.; conditions: 19 DAA
Protocol: as §1, §2, §3, §4, §5, §6, §7, §8

SMILES: O=C(O)C1(O)c2ccccc2-c2ccc(Cl)cc21 (centres unmarked) [Chlorflurenol, reference compound]
- Visual Weed Control (%) Obs (SCPMA; 22 DAA, 275 gai/ha): 45%
- Visual Weed Control (%) Obs (SCPMA; 22 DAA, 550 gai/ha): 60%
- Visual Weed Control (%) Obs (ECHOR; 22 DAA, 550 gai/ha): 30%
- Visual Weed Control (%) Obs (ECHCG [1]; 22 DAA, 275 gai/ha): 10%

SMILES: COC(=O)C1(O)c2ccccc2-c2ccc(Cl)cc21 (centres unmarked) [Chlorflurenol-Methyl, methyl 2-chloro-9-hydroxy-9H-fluorene-9-carboxylate, reference compound]
- Visual Weed Control (%) Obs (LEFCH [2]; 275 gai/ha): 0%
- Visual Weed Control (%) Obs (LEFCH [2]; 550 gai/ha): 0%
- Visual Weed Control (%) Obs (SCPMA; 20 DAA, 275 gai/ha): 75%
- Visual Weed Control (%) Obs (SCPMA; 20 DAA, 550 gai/ha): 80%
- Visual Weed Control (%) Obs (ECHCO; 68.75 gai/ha): 0%
- Visual Weed Control (%) Obs (ECHCO; 137.5 gai/ha): 0%
- Visual Weed Control (%) Obs (ECHCO; 275 gai/ha): 0%
- Visual Weed Control (%) Obs (ECHOR; 20 DAA, 275 gai/ha): 20%
- Visual Weed Control (%) Obs (ECHOR; 20 DAA, 550 gai/ha): 10%
- Visual Weed Control (%) Obs (ECHCG [3]; 68.75 gai/ha): 0%
- Visual Weed Control (%) Obs (ECHCG [3]; 137.5 gai/ha): 0%
- Visual Weed Control (%) Obs (ECHCG [3]; 275 gai/ha): 0%
- Visual Weed Control (%) Obs (ECHCG [1]; 20 DAA, 275 gai/ha): 15%
- Visual Weed Control (%) Obs (ECHCG [1]; 20 DAA, 550 gai/ha): 20%
- Visual Weed Control (%) Obs (CYPIR; 68.75 gai/ha): 0%
- Visual Weed Control (%) Obs (CYPIR; 137.5 gai/ha): 0%
- Visual Weed Control (%) Obs (CYPIR; 275 gai/ha): 0%
- Visual Weed Control (%) Obs (IPOHE; 137.5 gai/ha): 50%
- Visual Weed Control (%) Obs (IPOHE; 275 gai/ha): 55%
- Visual Weed Control (%) Obs (LEFCH [4]; 68.75 gai/ha): 0%
- Visual Weed Control (%) Obs (LEFCH [4]; 137.5 gai/ha): 10%
- Visual Weed Control (%) Obs (LEFCH [4]; 275 gai/ha): 10%
- Visual Weed Control (%) Obs (DIGSA; 68.75 gai/ha): 0%
- Visual Weed Control (%) Obs (DIGSA; 137.5 gai/ha): 0%
- Visual Weed Control (%) Obs (DIGSA; 275 gai/ha): 0%

SMILES: C/C(=N\NC(=O)Nc1cc(F)cc(F)c1)c1ncccc1C(=O)O [Diflufenzopyr sodium]
- Visual Weed Control (%) Obs (FIMMI; 17.5 gai/ha): 50%
- Visual Weed Control (%) Obs (FIMMI; 35 gai/ha): 55%
- Visual Weed Control (%) Obs (FIMMI; 70 gai/ha): 60%
- Visual Weed Control (%) Obs (CYPRO; 17.5 gai/ha): 0%
- Visual Weed Control (%) Obs (CYPRO; 35 gai/ha): 0%
- Visual Weed Control (%) Obs (CYPRO; 70 gai/ha): 10%
- Visual Weed Control (%) Obs (ECHCG [1]; 19 DAA, 17.5 gai/ha): 20%
- Visual Weed Control (%) Obs (ECHCG [1]; 19 DAA, 35 gai/ha): 50%
- Visual Weed Control (%) Obs (ECHCG [1]; 19 DAA, 70 gai/ha): 20%

Reference: patent US20140031217A1, “HERBICIDAL COMPOSITIONS COMPRISING 4-AMINO-3-CHLORO-5-FLUORO-6-(4-CHLORO-2-FLUORO-3-METHOXYPHENYL)PYRIDINE-2-CARBOXYLIC ACID OR A DERIVATIVE THEREOF AND AUXIN TRANSPORT INHIBITORS” (DOW AGROSCIENCES LLC, priority 2012, published 2014)
